# Key:
# Assay in all cases: relative viability (nuclei count vs DMSO), 5 days (fraction); higher = more cells survive
# PC-14 = test system: PC-14
# How it was run: (§1)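 Medians of duplicate plates are given as relative viability. That measure is the nuclei count in treated wells divided by the count in vehicle wells. Counts were taken on 4× images of lung cancer cell lines in 1536-well plates, 5 days after pin-tool dosing the day after seeding with one drug alone or a fixed anchor-drug dose plus five library-drug doses (not always all listed) in √10 steps.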
# ChaGo-K-1 = test system: ChaGo-K-1
# How it was run: as §1
# NCI-H2170 = test system: NCI-H2170
# How it was run: as §1
# NCI-H647 = test system: NCI-H647
# How it was run: as §1
# HOP-62 = test system: HOP-62
# How it was run: as §1
# RERF-LC-KJ = test system: RERF-LC-KJ
# How it was run: as §1
# BEN = test system: BEN
# How it was run: as §1
# LXF-289 = test system: LXF-289
# How it was run: as §1
# NCI-H441 = test system: NCI-H441
# How it was run: as §1
# LK-2 = test system: LK-2
# How it was run: as §1
# SK-MES-1 = test system: SK-MES-1
# How it was run: as §1
# NCI-H1993 = test system: NCI-H1993
# How it was run: as §1
# NCI-H1355 = test system: NCI-H1355
# How it was run: as §1
# NCI-H1944 = test system: NCI-H1944
# How it was run: as §1
# NCI-H727 = test system: NCI-H727
# How it was run: as §1
# EKVX = test system: EKVX
# How it was run: as §1
# NCI-H661 = test system: NCI-H661
# How it was run: as §1
# NCI-H1437 = test system: NCI-H1437
# How it was run: as §1
# NCI-H2126 = test system: NCI-H2126
# How it was run: as §1
# HCC-827 = test system: HCC-827
# How it was run: as §1
# LOU-NH91 = test system: LOU-NH91
# How it was run: as §1
# LCLC-103H = test system: LCLC-103H
# How it was run: as §1
# NCI-H1666 = test system: NCI-H1666
# How it was run: as §1
structure (smiles),measurement,setting,value
CN1CCN(CCOc2cc(OC3CCOCC3)c3c(Nc4c(Cl)ccc5c4OCO5)ncnc3c2)CC1 [Saracatinib] + O=C(CCCCCCC(=O)Nc1ccccc1)NO [Vorinostat] (partner 1 µM),relative viability,PC-14; first compound 0.02 µM,0.759
same,relative viability,PC-14; first compound 0.2 µM,0.247
same,relative viability,PC-14; first compound 0.6325 µM,0.163
same,relative viability,PC-14; first compound 2 µM,0.0854
same,relative viability,ChaGo-K-1; first compound 0.02 µM,0.797
same,relative viability,ChaGo-K-1; first compound 0.2 µM,0.55
same,relative viability,ChaGo-K-1; first compound 0.6325 µM,0.785
same,relative viability,ChaGo-K-1; first compound 2 µM,0.65
same,relative viability,NCI-H2170; first compound 0.02 µM,0.746
same,relative viability,NCI-H2170; first compound 0.2 µM,0.678
same,relative viability,NCI-H2170; first compound 0.6325 µM,0.93
same,relative viability,NCI-H2170; first compound 2 µM,0.571
same,relative viability,NCI-H647; first compound 0.02 µM,0.612
same,relative viability,NCI-H647; first compound 0.2 µM,0.499
same,relative viability,NCI-H647; first compound 0.6325 µM,0.532
same,relative viability,NCI-H647; first compound 2 µM,0.45
same,relative viability,HOP-62; first compound 0.02 µM,0.624
same,relative viability,HOP-62; first compound 0.2 µM,0.611
same,relative viability,HOP-62; first compound 0.6325 µM,0.769
same,relative viability,HOP-62; first compound 2 µM,0.618
same,relative viability,RERF-LC-KJ; first compound 0.02 µM,0.87
same,relative viability,RERF-LC-KJ; first compound 0.2 µM,0.729
same,relative viability,RERF-LC-KJ; first compound 0.6325 µM,0.753
same,relative viability,RERF-LC-KJ; first compound 2 µM,0.589
same,relative viability,BEN; first compound 0.02 µM,0.54
same,relative viability,BEN; first compound 0.2 µM,0.57
same,relative viability,BEN; first compound 0.6325 µM,0.54
same,relative viability,BEN; first compound 2 µM,0.576
same,relative viability,LXF-289; first compound 0.02 µM,0.78
same,relative viability,LXF-289; first compound 0.2 µM,0.573
same,relative viability,LXF-289; first compound 0.6325 µM,0.773
same,relative viability,LXF-289; first compound 2 µM,0.715
same,relative viability,NCI-H441; first compound 0.02 µM,0.84
same,relative viability,NCI-H441; first compound 0.2 µM,0.731
same,relative viability,NCI-H441; first compound 0.6325 µM,0.913
same,relative viability,NCI-H441; first compound 2 µM,0.94
same,relative viability,LK-2; first compound 0.02 µM,0.353
same,relative viability,LK-2; first compound 0.2 µM,0.317
same,relative viability,LK-2; first compound 0.6325 µM,0.224
same,relative viability,LK-2; first compound 2 µM,0.234
same,relative viability,SK-MES-1; first compound 0.02 µM,1.17
same,relative viability,SK-MES-1; first compound 0.2 µM,1.05
same,relative viability,SK-MES-1; first compound 0.6325 µM,1.17
same,relative viability,SK-MES-1; first compound 2 µM,0.83
same,relative viability,NCI-H1993; first compound 0.02 µM,0.806
same,relative viability,NCI-H1993; first compound 0.2 µM,0.651
same,relative viability,NCI-H1993; first compound 0.6325 µM,0.874
same,relative viability,NCI-H1993; first compound 2 µM,0.533
same,relative viability,NCI-H1355; first compound 0.02 µM,0.668
same,relative viability,NCI-H1355; first compound 0.2 µM,0.62
same,relative viability,NCI-H1355; first compound 0.6325 µM,0.7
same,relative viability,NCI-H1355; first compound 2 µM,0.587
same,relative viability,NCI-H1944; first compound 0.02 µM,0.54
same,relative viability,NCI-H1944; first compound 0.2 µM,0.542
same,relative viability,NCI-H1944; first compound 0.6325 µM,0.509
same,relative viability,NCI-H1944; first compound 2 µM,0.358
same,relative viability,NCI-H727; first compound 0.02 µM,1.12
same,relative viability,NCI-H727; first compound 0.2 µM,0.996
same,relative viability,NCI-H727; first compound 0.6325 µM,1.23
same,relative viability,NCI-H727; first compound 2 µM,0.888
same,relative viability,EKVX; first compound 0.02 µM,0.762
same,relative viability,EKVX; first compound 0.2 µM,0.474
same,relative viability,EKVX; first compound 0.6325 µM,0.817
same,relative viability,EKVX; first compound 2 µM,0.494
same,relative viability,NCI-H661; first compound 0.02 µM,0.798
same,relative viability,NCI-H661; first compound 0.2 µM,0.808
same,relative viability,NCI-H661; first compound 0.6325 µM,0.81
same,relative viability,NCI-H661; first compound 2 µM,0.693
same,relative viability,NCI-H1437; first compound 0.02 µM,1.05
same,relative viability,NCI-H1437; first compound 0.2 µM,0.995
same,relative viability,NCI-H1437; first compound 0.6325 µM,1.14
same,relative viability,NCI-H1437; first compound 2 µM,1.17
same,relative viability,NCI-H2126; first compound 0.02 µM,0.936
same,relative viability,NCI-H2126; first compound 0.2 µM,0.647
same,relative viability,NCI-H2126; first compound 0.6325 µM,0.713
same,relative viability,NCI-H2126; first compound 2 µM,0.539
same,relative viability,HCC-827; first compound 0.02 µM,0.926
same,relative viability,HCC-827; first compound 0.2 µM,0.643
same,relative viability,HCC-827; first compound 0.6325 µM,0.354
same,relative viability,HCC-827; first compound 2 µM,0.15
same,relative viability,LOU-NH91; first compound 0.02 µM,0.87
same,relative viability,LOU-NH91; first compound 0.2 µM,0.696
same,relative viability,LOU-NH91; first compound 0.6325 µM,0.903
same,relative viability,LOU-NH91; first compound 2 µM,0.628
same,relative viability,LCLC-103H; first compound 0.02 µM,0.868
same,relative viability,LCLC-103H; first compound 0.2 µM,0.733
same,relative viability,LCLC-103H; first compound 0.6325 µM,0.846
same,relative viability,LCLC-103H; first compound 2 µM,0.762
same,relative viability,NCI-H1666; first compound 0.02 µM,0.988
same,relative viability,NCI-H1666; first compound 0.2 µM,0.914
same,relative viability,NCI-H1666; first compound 0.6325 µM,1.12
same,relative viability,NCI-H1666; first compound 2 µM,1.2

# From the supplement of paper PMC10307832
